Data on 16 compounds can be found in patent US7517885B2, “Substituted [4-(4-phenyl-piperazin-1-yl)-cyclohexyl]-urea compounds” (Janssen Pharmaceutica N.V., priority 2005, dated 2009).

In one experiment the target is T1, α1d-AR (Homo sapiens, UniProt P25100).
T1 construct: expressed in transfected cells; host or cells: COS-7 cells (membranes)
T1 sequence (P25100 1-572): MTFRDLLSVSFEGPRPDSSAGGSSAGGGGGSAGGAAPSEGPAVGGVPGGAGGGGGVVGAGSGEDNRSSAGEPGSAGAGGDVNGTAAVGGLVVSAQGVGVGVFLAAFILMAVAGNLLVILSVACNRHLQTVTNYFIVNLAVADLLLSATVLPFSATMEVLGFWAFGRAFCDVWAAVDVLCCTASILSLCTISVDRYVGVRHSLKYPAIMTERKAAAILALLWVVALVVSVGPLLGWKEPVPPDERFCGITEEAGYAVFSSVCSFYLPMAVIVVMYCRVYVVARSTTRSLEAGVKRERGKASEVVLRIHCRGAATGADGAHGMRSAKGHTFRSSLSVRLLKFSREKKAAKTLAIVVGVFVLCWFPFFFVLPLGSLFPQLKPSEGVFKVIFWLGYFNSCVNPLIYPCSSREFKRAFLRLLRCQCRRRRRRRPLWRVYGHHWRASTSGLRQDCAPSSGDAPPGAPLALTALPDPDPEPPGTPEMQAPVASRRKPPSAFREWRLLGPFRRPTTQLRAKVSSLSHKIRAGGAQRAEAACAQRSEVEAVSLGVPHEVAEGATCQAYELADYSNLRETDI
Description: α1-Adrenergic Receptor Binding Assay (125I-HEAT radio-ligand), α1d subtype. The note with it: membranes of COS-7 cells transfected with α1d subtype; 125I-HEAT 50 pM; rt 1 hr. The procedure:
(§1) α1-Adrenergic Receptor Binding Assay
(§2) Preparation of COS Cell Membranes
(§3) Membranes were prepared from COS-7 cells (African Green monkey kidney SV40-transformed cells) that had been transfected with one of the three α1-AR subtypes (Genbank accession number for the α1a subtype: AF013261; Genbank accession number for the α1b subtype: NM000679; Genbank accession number for the α1d subtype: NM000678) using the following method: COS cells from ten 100 mm tissue culture plates were scraped into a 5 mL volume of TE (a mixture of 50 mM Tris-HCl, 5 mM EDTA, pH 7.4). […] The disrupted cells were centrifuged at 1000×g min at 4° C. Supernatants were centrifuged at 34,500×g for 20 min at 4° C. The membrane pellets were suspended in a 2 mL volume of TNE (a mixture of 50 mM Tris-HCl, 5 mM EDTA and 150 mM NaCl at pH 7.4). An aliquot of the membrane suspension was stored at −70° C. until use. The protein concentration was determined using the BioRad “DC” protein assay kit following membrane solubilization with Triton X-100.
(§4) Radio-Ligand Binding Assay
(§5) Triplicate determinations of radio-ligand binding in the presence of increasing concentrations of testing compound were made. The reagents were added to 96-well polypropylene plate wells. […] The plate was incubated at rt for 1 hr. The contents of the wells were filtered through a glass filter (type C) (GF/C) membrane Unifilter plate (Packard Instruments) using the Packard Filtermate cell harvester. The filter plates were dried in a vacuum oven for 30 min at 40° C. 25 μL Microscint 20 liquid scintillation fluid (Packard Instruments) was added to each well. The radioactive content was analyzed in the TopCount microplate scintillation counter (Packard Instruments).

For a further experiment, the target named is T2, α1a-AR (Homo sapiens, UniProt P35348).
T2 construct: expressed in transfected cells; host or cells: COS-7 cells (membranes)
T2 sequence (P35348 1-455 isoform P35348-4): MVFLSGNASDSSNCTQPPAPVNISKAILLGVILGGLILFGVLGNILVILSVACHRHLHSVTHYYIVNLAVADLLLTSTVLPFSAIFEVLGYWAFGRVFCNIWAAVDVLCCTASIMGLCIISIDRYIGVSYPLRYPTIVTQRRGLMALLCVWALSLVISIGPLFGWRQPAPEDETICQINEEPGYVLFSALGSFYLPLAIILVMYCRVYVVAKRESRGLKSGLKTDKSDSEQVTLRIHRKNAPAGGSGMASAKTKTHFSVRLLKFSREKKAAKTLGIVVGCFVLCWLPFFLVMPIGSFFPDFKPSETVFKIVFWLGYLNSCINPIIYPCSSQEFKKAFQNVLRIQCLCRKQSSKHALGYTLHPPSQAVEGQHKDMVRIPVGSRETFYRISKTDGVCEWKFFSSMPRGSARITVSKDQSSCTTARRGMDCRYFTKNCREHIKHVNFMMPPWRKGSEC
Description: α1-Adrenergic Receptor Binding Assay (125I-HEAT radio-ligand), α1a subtype. The following applies: membranes of COS-7 cells transfected with α1a subtype; 125I-HEAT 50 pM; rt 1 hr. How it is done:
as §1, §2, §3, §4, §5

The target in the next experiment is T3, α1b-AR (Homo sapiens, UniProt P35368).
T3 construct: expressed in transfected cells; host or cells: COS-7 cells (membranes)
T3 sequence (P35368 1-520): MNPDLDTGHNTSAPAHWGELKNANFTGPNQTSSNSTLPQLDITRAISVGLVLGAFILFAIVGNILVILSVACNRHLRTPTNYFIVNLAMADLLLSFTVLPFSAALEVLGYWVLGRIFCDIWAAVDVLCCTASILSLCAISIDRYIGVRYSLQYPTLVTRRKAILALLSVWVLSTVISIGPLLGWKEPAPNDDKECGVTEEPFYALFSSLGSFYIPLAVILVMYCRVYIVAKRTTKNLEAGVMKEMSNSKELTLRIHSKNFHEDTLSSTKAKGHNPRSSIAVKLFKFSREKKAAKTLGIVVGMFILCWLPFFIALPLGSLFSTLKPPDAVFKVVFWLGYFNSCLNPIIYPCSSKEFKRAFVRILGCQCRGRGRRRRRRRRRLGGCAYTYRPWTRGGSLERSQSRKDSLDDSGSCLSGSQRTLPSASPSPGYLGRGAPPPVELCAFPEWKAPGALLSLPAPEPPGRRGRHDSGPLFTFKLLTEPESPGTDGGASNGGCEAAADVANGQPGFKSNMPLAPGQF
Description: α1-Adrenergic Receptor Binding Assay (125I-HEAT radio-ligand), α1b subtype. The note with it: membranes of COS-7 cells transfected with α1b subtype; 125I-HEAT 50 pM; rt 1 hr. How it is done: as §1, §2, §3, §4, §5

Experiment [1] deals with α1a and α1d subtypes over the α1b subtype. The following applies: cited from earlier work.

pKi: −log10 of the molar value.

As to `CC(C)Oc1ccccc1N1CCN([C@H]2CC[C@@H](NC(=O)Nc3cc(F)ccc3F)CC2)CC1` [Cpd 24, 1-(2,5-difluoro-phenyl)-r-3-{c-4-[4-(2-isopropoxy-phenyl)-piperazin-1-yl]-cyclohexyl}-urea], the negative-log Ki (pKi) at α1d-AR is 7.28; at α1a-AR it was 7.59; on α1b-AR it was 6.59.

Turning to `CCOc1ccccc1OCCN[C@H](C)Cc1ccc(OC)c(S(N)(=O)=O)c1` [Tamsulosin], the “selective for the α1a and α1d subtypes over the α1b subtype” value in experiment [1] was “about 15 fold”.

Take `CC(C)Oc1ccccc1N1CCN([C@H]2CC[C@H](NC(=O)Nc3c(Cl)cc(Cl)cc3Cl)CC2)CC1` [Cpd 16, r-1-{t-4-[4-(2-isopropoxy-phenyl)-piperazin-1-yl]-cyclohexyl}-3-(2,4,6-trichloro-phenyl)-urea]: the pKi at α1d-AR is 8.44; on α1a-AR it was 8.19; at α1b-AR it was 6.95.

As for `CC(C)Oc1ccccc1N1CCN(C2CCC(NC(=O)Nc3ccccc3Oc3ccccc3)CC2)CC1` (mixture of isomers) [Cpd 17, 1-{4-[4-(2-isopropoxy-phenyl)-piperazin-1-yl]-cyclohexyl}-3-(2-phenoxy-phenyl)-urea], the pKi on α1d-AR was 8.08; on α1a-AR, 7.42; at α1b-AR, 6.37.

In the case of `COc1ccc(NC(=O)N[C@H]2CC[C@H](N3CCN(c4ccccc4OC(C)C)CC3)CC2)c(C)c1` [Cpd 21, r-1-{t-4-[4-(2-isopropoxy-phenyl)-piperazin-1-yl]-cyclohexyl}-3-(4-methoxy-2-methyl-phenyl)-urea], the negative logarithm of the Ki (pKi) was 7.67 on α1d-AR, 7.63 on α1a-AR and 6.82 at α1b-AR.

Take `CC(C)Oc1ccccc1N1CCN([C@H]2CC[C@H](NC(=O)Nc3ccccc3Cl)CC2)CC1` [Cpd 10, 1-(2-chloro-phenyl)-r-3-{t-4-[4-(2-isopropoxy-phenyl)-piperazin-1-yl]-cyclohexyl}-urea]: the results for the pKi on α1d-AR, on α1a-AR and at α1b-AR were 8.52, 7.94 and 7.41, respectively.

For the compound `CC(C)Oc1ccccc1N1CCN([C@H]2CC[C@H](NC(=O)NCc3cccc(F)c3)CC2)CC1` [Cpd 6, 1-(3-fluoro-benzyl)-r-3-{t-4-[4-(2-isopropoxy-phenyl)-piperazin-1-yl]-cyclohexyl}-urea], the pKi on α1d-AR was 7.82; at α1a-AR, 7.97; on α1b-AR it was 7.16.

For `COc1ccc(C)cc1NC(=O)N[C@H]1CC[C@@H](N2CCN(c3ccccc3OC(C)C)CC2)CC1` [Cpd 33, r-1-{c-4-[4-(2-isopropoxy-phenyl)-piperazin-1-yl]-cyclohexyl}-3-(2-methoxy-5-methyl-phenyl)-urea], the pKi at α1d-AR was 8.19; at α1a-AR it was 7.43; at α1b-AR, 6.77.

Regarding `CC(C)Oc1ccccc1N1CCN([C@H]2CC[C@@H](NC(=O)NCc3cccc(F)c3)CC2)CC1` [Cpd 5, 1-(3-fluoro-benzyl)-r-3-{c-4-[4-(2-isopropoxy-phenyl)-piperazin-1-yl]-cyclohexyl}-urea], the pKi on α1d-AR was 7.21; on α1a-AR, 7.09; on α1b-AR, 6.15.

For the compound `CC(C)Oc1ccccc1N1CCN([C@H]2CC[C@H](NC(=O)Nc3cc(F)ccc3F)CC2)CC1` [Cpd 25, 1-(2,5-difluoro-phenyl)-r-3-{t-4-[4-(2-isopropoxy-phenyl)-piperazin-1-yl]-cyclohexyl}-urea], the pKi was 8.92 on α1d-AR, 8.77 at α1a-AR and 7.44 on α1b-AR.

Turning to `CC(C)Oc1ccccc1N1CCN(C2CCC(NC(=O)Nc3ccccc3OC(F)(F)F)CC2)CC1` (mixture of isomers) [Cpd 30, 1-{4-[4-(2-isopropoxy-phenyl)-piperazin-1-yl]-cyclohexyl}-3-(2-trifluoromethoxy-phenyl)-urea], the pKi on α1d-AR was 7.87; at α1a-AR, 7.00; on α1b-AR it was 6.22.

In the case of `COc1ccc(NC(=O)N[C@H]2CC[C@H](N3CCN(c4ccccc4OC(C)C)CC3)CC2)cc1Cl` [Cpd 35, 1-(3-chloro-4-methoxy-phenyl)-r-3-{t-4-[4-(2-isopropoxy-phenyl)-piperazin-1-yl]-cyclohexyl}-urea], the pKi on α1d-AR was 8.64; on α1a-AR, 7.89; at α1b-AR it was 6.97.

With `CC(C)Oc1ccccc1N1CCN([C@H]2CC[C@H](NC(=O)Nc3ccc(OC(F)(F)F)cc3)CC2)CC1` [Cpd 32, r-1-{t-4-[4-(2-isopropoxy-phenyl)-piperazin-1-yl]-cyclohexyl}-3-(4-trifluoromethoxy-phenyl)-urea], the negative logarithm of the Ki (pKi) at α1d-AR is 7.24; at α1a-AR it was 6.74; on α1b-AR, 6.89.

With `CC(C)Oc1ccccc1N1CCN([C@H]2CC[C@@H](NC(=O)Nc3ccc(OC(F)(F)F)cc3)CC2)CC1` [Cpd 31, r-1-{c-4-[4-(2-isopropoxy-phenyl)-piperazin-1-yl]-cyclohexyl}-3-(4-trifluoromethoxy-phenyl)-urea], the pKi at α1d-AR was 8.35; on α1a-AR, 7.32; on α1b-AR, 6.56.

Take `CC(C)Oc1ccccc1N1CCN([C@H]2CC[C@H](NC(=O)Nc3cc(F)cc(F)c3)CC2)CC1` [Cpd 29, 1-(3,5-difluoro-phenyl)-r-3-{t-4-[4-(2-isopropoxy-phenyl)-piperazin-1-yl]-cyclohexyl}-urea]: the negative-log Ki (pKi) on α1d-AR was 9.00; at α1a-AR it was 8.24; at α1b-AR it was 7.28.

In the case of `CC(C)Oc1ccccc1N1CCN([C@H]2CC[C@@H](NC(=O)Nc3ccccc3Cl)CC2)CC1` [Cpd 9, 1-(2-chloro-phenyl)-r-3-{c-4-[4-(2-isopropoxy-phenyl)-piperazin-1-yl]-cyclohexyl}-urea], the negative-log Ki (pKi) on α1d-AR was 7.34; at α1a-AR, 7.32; on α1b-AR it was 6.43.
